Data taken from paper PMC10019194, “Killing Two Birds with One Stone: Discovery of Dual Inhibitors of Oxygen and Fumarate Respiration in Zoonotic Parasite, Echinococcus multilocularis” (Antimicrobial Agents and Chemotherapy, 2023).
Entries after “also recorded” stand apart in the source; their conditions may differ. Like-named read-outs stand apart in the source and are kept apart here.

Legend:
[1] = target: complex II (succinate:quinone reductase, SQR) (Echinococcus multilocularis, UniProt A0A1Z4EAW8+A0A1Z4EAX0+A0A1Z4EAX1); assay: Succinate:quinone reductase (SQR) activity (complex II) in protoscoleces mitochondrial fraction; assay type: biochemical
Excerpt: (§1) Cyst tissues containing E. multilocularis (Nemuro strain) protoscoleces isolated from infected hispid cotton rats, Sigmodon hispidus, were used. The tissues were shredded through a metal mesh (0.5 mm diameter). Then, the tissues were repeatedly suspended and washed with physiological saline in a tall beaker to obtain protoscoleces by exploiting the buoyancy difference between protoscoleces and other tissue ([26]). The obtained protoscoleces were homogenized with a motor-driven homogenizer to prepare the mitochondrial fraction. The homogenate was diluted with mitochondrial preparation buffer (210 mM mannitol, 10 mM sucrose, 1 mM disodium EDTA, and 50 mM Tris-HCl [pH 7.5]) supplemented with 10 mM sodium malonate to 5 times the volume of the original protoscolex homogenate, and then centrifuged at 800 × g for 10 min (4°C) to remove cell debris and nuclei. The supernatant was then centrifuged at 8,000 × g for 10 min (4°C) to obtain the mitochondrial pellet. Next, the pellet was resuspended in mitochondrial preparation buffer (without malonate) and centrifuged at 8,000 × g for 10 min (4°C). The enriched mitochondrial fraction was finally suspended in approximately 0.5 to 1.0 mL of mitochondrial preparation buffer without malonate and frozen at −50°C. The mitochondrial fraction from A. suum was prepared essentially as described previously ([27], [28]).
(§2) NADH:quinone reductase activity (complex I), succinate:quinone reductase activity (complex II), and succinate:cytochrome c reductase activity (complexes II to III) were measured using a UV-3000 spectrophotometer (Shimadzu, Kyoto, Japan) as described previously ([4], [6]). Briefly, all enzyme assays using mitochondrial fractions were performed in 0.5- or 1.0-mL reaction mixtures at 25°C. A freeze/thaw process was performed before the assay to ensure that the mitochondrial membrane was permeable to the solutes. The final mitochondrial protein concentration was 50 μg/mL. NADH:quinone reductase activity was measured in 50 mM potassium phosphate buffer (pH 7.4) containing 2 mM potassium cyanide, KCN (Sigma, St. Louis, MO, USA), and 60 μM decylubiquinone (Sigma). The activity assay was started by the addition of 50 μM NADH (Fujifilm-Wako, Tokyo, Japan) and recorded as the rate of NADH consumption as monitored at 340 nm (ε = 6.2 mM^−1 cm^−1). The reagents used in the SQR activity assay were mixed with the reaction buffer containing 50 mM potassium phosphate (pH 7.4) and 0.1% (wt/vol) sucrose monolaurate (DOJINDO, Kumamoto, Japan). SQR activity was determined by monitoring the change in absorbance of quinone at 278 nm (ε = 15 mM^−1 cm^−1) in the presence of 60 μM decylubiquinone, 2 mM KCN, and the inhibitor. The reaction was initiated by the addition of 10 mM disodium succinate to the mixture. NADH:cytochrome c activity (complex I to III) was measured in the reaction buffer (30 mM potassium phosphate, 1 mM MgCl2, pH 7.5) containing 2 mM KCN, 50 μM cytochrome c (Nacalai Tesque, Kyoto, Japan), and the inhibitor. The assay was performed after the addition of 100 mM malonate to block complex II activity. The reaction was started by adding 50 μM NADH to the mixture, and the enzyme activity was determined by monitoring the change in absorbance of cytochrome c at 550 nm (ε = 19 mM^−1 cm^−1). IC50 values of AF and its derivatives against the specific activities of mitochondrial respiratory enzymes in protoscoleces were determined. The IC50 of each compound was determined by calculating approximation lines from three or more points on either side of the IC50 concentration.

[2] = target: complex I and III (NADH:cytochrome c reductase) (Echinococcus multilocularis, UniProt Q9TE80); assay: NADH:cytochrome c reductase activity (complex I to III) in protoscoleces mitochondrial fraction; assay type: biochemical
Excerpt: as §1, §2

[3] = target: complex I (NADH:quinone reductase) (Echinococcus multilocularis, UniProt A0A068Y553+A0A068Y9L9+Q9TE76); assay: NADH:quinone reductase activity (complex I) in protoscoleces mitochondrial fraction; assay type: biochemical; settings: for IC50: E. multilocularis protoscoleces mitochondria, read-out: IC50 NADH:decyl rhodoquinone reductase (complex I)
Excerpt: as §1
as §2, with “Louis, MO, USA), and 60 μM decylubiquinone (Sigma).” left out, “SQR activity was determined by monitoring the change in absorbance of quinone at 278 nm (ε = 15 mM^−1 cm^−1) in the presence of 60 μM decylubiquinone, 2 mM KCN, and the inhibitor.” left out

[4] = test system: E. multilocularis protoscoleces; assay: Ex vivo culture assay of live protoscoleces, viability by trypan blue exclusion; assay type: cell-based, Echinococcus multilocularis; settings: 50 μM; for antiparasitic effect on protoscoleces in culture assay: both anaerobic and aerobic conditions
Protocol: FIG 5 Viability of E. multilocularis protoscoleces in ex vivo culture assay. The E. multilocularis protoscoleces were treated with ascofuranone (AF) and its derivatives in culture under aerobic and anaerobic conditions (O2 <0.3%). Each compound was added to the culture medium at a final concentration of 50 μM. The control group was supplemented with 0.5% (vol/vol) dimethyl sulfoxide (DMSO). Atovaquone (ATV) was used as positive control and to ensure anaerobic conditions in the culture. The viability of protoscoleces was evaluated by their ability to exclude trypan blue. The data are presented as the mean ± standard deviation (n = 3).
The obtained protoscoleces were cultured in Connaught Medical Research Laboratories 1066 medium (Gibco, Grand Island, NY, USA) containing 0.5% (wt/vol) yeast extract (Difco Laboratories, Detroit, MI, USA), 2 mM L-glutamine (Gibco), 23 mM 4-(2-hydroxyethyl)-1-piperazineethanesulfonic acid, 0.5% (wt/vol) D (+)-glucose, 0.4 mM sodium taurocholate (Wako Pure Chemical Industries, Osaka, Japan), 57 mM sodium hydrogen carbonate, and 100 U/mL penicillin-streptomycin (Gibco). The protoscoleces were observed daily for seven consecutive days, and half of the medium was replaced on day 3. For anaerobic cultures, six-well plates were sealed in plastic containers with oxygen-detecting agents and oxygen scavengers (Aneromeito, Nissui Pharmaceutical, Tokyo, Japan) to keep the oxygen concentration below 0.3% at 37°C. The protoscoleces were treated with AF and its derivatives at a final concentration of 50 μM in the culture medium, and the duration of parasite elimination was investigated. The control group was supplemented with 0.5% (vol/vol) dimethyl sulfoxide (DMSO), and all conditions were assayed in triplicate. We used ATV in a culture assay as positive control and to ensure anaerobic conditions in the culture ([4], [5]). […] The viability of protoscoleces was determined after microscopic observation of more than 170 protoscoleces per well using the trypan blue exclusion test, as described previously ([4], [6], [33]).

[5] = IC50, inhibition of E. multilocularis SQR, Table 4, different linker structures, mean ± SEM
[6] = IC50, inhibition of E. multilocularis SQR, Table 2, substitutions on the benzene group, mean ± SEM
[7] = IC50, E. multilocularis SQR inhibition, Table 5, furanone ring-substituted derivatives, mean ± SEM
[8] = IC50 against E. multilocularis SQR, Table 3, various side chain lengths, mean ± SEM
[9] = E. multilocularis protoscoleces mitochondria; mean ± SEM; Table 1; read-out: IC50 NADH:cytochrome c reductase (complex I and III)
[10] = IC50 Succinate:quinone reductase (SQR) (complex II), E. multilocularis protoscoleces mitochondria, mean ± SEM, Table 1
[11] = IC50 against E. multilocularis complex II (SQR), figure legends, supplement

Sequence of complex I and III (NADH:cytochrome c reductase) (Q9TE80 entry or part of it): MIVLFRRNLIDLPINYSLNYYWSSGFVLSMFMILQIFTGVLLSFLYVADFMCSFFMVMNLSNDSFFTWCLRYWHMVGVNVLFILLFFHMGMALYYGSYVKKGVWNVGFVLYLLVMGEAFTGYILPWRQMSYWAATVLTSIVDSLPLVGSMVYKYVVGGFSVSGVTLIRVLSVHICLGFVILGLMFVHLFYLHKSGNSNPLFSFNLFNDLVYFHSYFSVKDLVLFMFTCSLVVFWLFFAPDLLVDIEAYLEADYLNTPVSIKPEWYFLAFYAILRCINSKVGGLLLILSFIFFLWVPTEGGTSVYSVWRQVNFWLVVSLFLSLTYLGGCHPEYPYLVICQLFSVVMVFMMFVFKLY
Sequence of complex I and III (NADH:cytochrome c reductase) (Q9GP40 whole entry, further chain): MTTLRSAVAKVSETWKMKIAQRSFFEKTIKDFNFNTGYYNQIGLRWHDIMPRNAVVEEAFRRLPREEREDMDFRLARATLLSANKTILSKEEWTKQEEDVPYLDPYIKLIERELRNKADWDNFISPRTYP
Sequence of complex I and III (NADH:cytochrome c reductase) (Q9TE76 entry or part of it, further chain): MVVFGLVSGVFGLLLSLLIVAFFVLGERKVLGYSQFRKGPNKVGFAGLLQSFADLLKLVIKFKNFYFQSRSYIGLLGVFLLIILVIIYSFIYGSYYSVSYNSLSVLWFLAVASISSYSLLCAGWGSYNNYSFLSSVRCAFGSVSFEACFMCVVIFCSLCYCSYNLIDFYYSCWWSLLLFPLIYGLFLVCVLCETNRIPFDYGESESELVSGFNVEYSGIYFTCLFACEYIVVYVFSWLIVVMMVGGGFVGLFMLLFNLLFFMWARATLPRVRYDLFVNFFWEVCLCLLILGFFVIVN
Sequence of complex II (succinate:quinone reductase, SQR) (A0A1Z4EAV8 entry or part of it): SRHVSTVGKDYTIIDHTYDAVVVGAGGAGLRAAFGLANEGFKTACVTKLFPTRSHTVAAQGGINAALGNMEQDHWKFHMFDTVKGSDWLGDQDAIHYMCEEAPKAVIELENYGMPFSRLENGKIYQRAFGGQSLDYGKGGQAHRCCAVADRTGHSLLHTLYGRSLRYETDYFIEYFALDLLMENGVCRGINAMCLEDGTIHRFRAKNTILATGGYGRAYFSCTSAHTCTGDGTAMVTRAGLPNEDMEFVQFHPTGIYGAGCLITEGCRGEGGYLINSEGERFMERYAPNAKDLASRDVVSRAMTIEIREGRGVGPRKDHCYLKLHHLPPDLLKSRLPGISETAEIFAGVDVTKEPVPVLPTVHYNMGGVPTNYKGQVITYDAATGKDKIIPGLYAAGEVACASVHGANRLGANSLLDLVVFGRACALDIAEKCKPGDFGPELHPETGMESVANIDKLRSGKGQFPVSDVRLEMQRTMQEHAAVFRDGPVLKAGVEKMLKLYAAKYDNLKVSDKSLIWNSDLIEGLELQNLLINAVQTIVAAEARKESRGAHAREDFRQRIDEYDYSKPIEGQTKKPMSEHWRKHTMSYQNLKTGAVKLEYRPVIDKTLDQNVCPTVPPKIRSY
Sequence of complex II (succinate:quinone reductase, SQR) (A0A1Z4EAX1 entry or part of it): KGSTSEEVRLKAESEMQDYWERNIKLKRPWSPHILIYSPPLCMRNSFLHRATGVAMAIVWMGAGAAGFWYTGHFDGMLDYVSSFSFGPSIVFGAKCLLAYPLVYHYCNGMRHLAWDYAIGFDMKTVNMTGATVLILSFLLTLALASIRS
Sequence of complex II (succinate:quinone reductase, SQR) (A0A1Z4EAX0 entry or part of it): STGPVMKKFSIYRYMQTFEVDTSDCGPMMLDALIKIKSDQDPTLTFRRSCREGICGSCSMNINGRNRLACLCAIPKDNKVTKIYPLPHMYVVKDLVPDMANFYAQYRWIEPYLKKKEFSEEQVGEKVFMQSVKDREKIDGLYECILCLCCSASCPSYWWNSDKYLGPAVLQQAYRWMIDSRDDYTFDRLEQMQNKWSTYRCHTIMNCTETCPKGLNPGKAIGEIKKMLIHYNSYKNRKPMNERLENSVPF
Sequence of complex II (succinate:quinone reductase, SQR) (A0A1Z4EAW8 entry or part of it): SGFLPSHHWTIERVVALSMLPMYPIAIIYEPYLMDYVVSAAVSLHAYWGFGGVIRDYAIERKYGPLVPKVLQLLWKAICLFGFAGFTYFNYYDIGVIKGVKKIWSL

## CCCCCC(C)CCc1c(O)c(Cl)c(C)c(C=O)c1O (stereo not drawn) [Compound D14]
[1]; [5]
  IC50: 0.54 µM

## CC(=O)c1c(C)c(Cl)c(O)c(C/C=C(\C)CCC=C(C)C)c1O [Compound D6]
[1]; [6]
  IC50: 0.21 ± 0.022 µM

## C/C(=C\CC/C(C)=C/Cc1c(O)c(Cl)c(C)c(C=O)c1O)CO [Compound D19]
[1]; [7]
  IC50: > 10 µM

## CCCCCCC/C=C/c1c(O)c(Cl)c(C)c(C=O)c1O [Compound C9]
[1]; [8]
  IC50: 1.2 ± 0.12 µM

## CC(=O)c1c(C)c(Cl)c(O)c(C/C=C(\C)CC/C=C(\C)CCC=C(C)C)c1O [Compound D3]
[2]; [9]
  IC50: 0.014 ± 0.002 µM
[1]; [10]
  IC50: 0.135 ± 0.014 µM
[3]
  IC50: > 50 µM

## CC(C)=CCC/C(C)=C/Cc1c(O)cc(C)c(C=O)c1O [Compound D8]
[1]; [6]
  IC50: > 10 µM

## C/C(=C\Cc1c(O)c(Cl)c(C)c(C=O)c1O)CC/C=C(\C)C(C)O (stereo not drawn) [Compound D18]
[1]; read-out: IC50, E. multilocularis SQR inhibition, Table 5, furanone ring-substituted derivatives, mean ± SEM
  IC50: 3.77 ± 0.98 µM

## CC(=O)c1cc(Cl)c(O)c(C/C=C(\C)CC/C=C(\C)CCC=C(C)C)c1O [Compound D4]
[2]; [9]
  IC50: 0.109 ± 0.009 µM
[4]; aerobic culture, day 7
  elimination of protoscoleces on day 7: 34%
[4]; anaerobic culture (O2 <0.3%), day 7
  elimination of protoscoleces by day 7: 65%
[4]
  antiparasitic effect on protoscoleces in culture assay: weak
[1]; [10]
  IC50: 0.037 ± 0.008 µM
[3]
  IC50: > 50 µM

## C/C(=C\Cc1c(O)c(Cl)c(C)c(C=O)c1O)CC/C=C(\C)COC(=O)C(C)(C)C [Compound D17]
[1]; [7]
  IC50: 0.488 ± 0.015 µM
[1]; [11]
  IC50: 0.48 µM

## C/C=C/c1c(O)c(Cl)c(C)c(C=O)c1O [Compound C3]
[1]; [8]
  IC50: 5.4 ± 0.7 µM

## C/C(=C\Cc1c(O)c(Cl)c(C)c(C=O)c1O)CC/C=C(\C)[C@@H]1CC(=O)C(C)(C)O1 [AF, Ascofuranone]
[2]; read-out: IC50 NADH:cytochrome c reductase (complex I and III); E. multilocularis protoscoleces mitochondria; mean ± SEM; Table 1
  IC50: 0.057 ± 0.011 µM
[4]; aerobic culture
  viability of protoscoleces during treatment: progressively reduced
[4]; anaerobic culture (O2 <0.3%)
  viability / killing of protoscoleces during treatment: progressively reduced; also recorded: strong killing effect
[4]
  antiparasitic effect on protoscoleces in culture assay: strong antiparasitic effect
[1]; [7]
  IC50: 1.1 ± 0.21 µM
[1]; [6]
  IC50: 1.1 ± 0.21 µM
[1]; [10]
  IC50: 1.1 ± 0.21 µM
[3]
  inhibition of NADH:ubiquinone reductase activity of complex I: not inhibited
  IC50: > 50 µM

## CCCCCCCCCC/C=C/c1c(O)c(Cl)c(C)c(C=O)c1O [Compound C12]
[1]; [8]
  IC50: 1.7 ± 0.72 µM

## COc1c(Cl)c(C)c(C=O)c(O)c1C/C=C(\C)CC/C=C(\C)C1CC(=O)C(C)(C)O1 (stereo not drawn) [Compound D11]
[1]; 4-OH changed to methoxy
  SQR inhibitory activity: inhibitory activity was lost
[1]; [6]
  IC50: > 10 µM

## CC(C)=CCC/C(C)=C/CC/C(C)=C/Cc1c(O)c(Cl)cc(C=O)c1O [Compound D1]
[2]; [9]
  IC50: 0.274 ± 0.025 µM
[1]; [10]
  IC50: 0.088 ± 0.013 µM
[3]
  IC50: > 50 µM

## COC(=O)c1c(C)c(Cl)c(O)c(C/C=C(\C)CCC=C(C)C)c1O [Compound D9]
[1]; [6]
  IC50: > 10 µM

## CCCCCCCCc1c(O)c(Cl)c(C)c(C=O)c1O [Compound D15]
[1]; [5]
  IC50: 0.89 ± 0.11 µM

## CC(C)=CCC/C(C)=C/Cc1c(O)c(Cl)c(C)c(C=O)c1O [Compound D12]
[1]; [5]
  IC50: 0.57 ± 0.03 µM

## CCCCCCCC/C=C/c1c(O)c(Cl)c(C)c(C=O)c1O [Compound C10]
[1]; [8]
  IC50: 1.2 ± 0.08 µM

## CCC/C=C/c1c(O)c(Cl)c(C)c(C=O)c1O [Compound C5]
[1]; [8]
  IC50: 3.3 ± 0.27 µM

## CCCCC/C=C/c1c(O)c(Cl)c(C)c(C=O)c1O [Compound C7]
[1]; [8]
  IC50: 0.95 ± 0.27 µM

## Cc1c(Cl)c(O)c(CCC(C)CCCC(C)C)c(O)c1C=O (stereo not drawn) [Compound D13]
[1]; [5]
  IC50: 0.28 ± 0.05 µM

## CC(C)=CCC/C(C)=C/CC/C(C)=C/Cc1c(O)c(Cl)c(C)c(C=O)c1O [Compound D2]
[2]; [9]
  IC50: 0.008 ± 0.002 µM
[2]; IC50 complex II 0.309 μM vs complex III 0.008 μM
  selectivity complex III over complex II (aerobic vs anaerobic): 38 fold
[4]; aerobic culture
  day of complete elimination of protoscoleces: ≤ 4 days
[4]; anaerobic culture (O2 <0.3%)
  day of complete elimination of protoscoleces: 6 days
[4]
  antiparasitic effect on protoscoleces in culture assay: strong antiparasitic effect
[1]; [7]
  IC50: 0.309 ± 0.021 µM
[1]; [10]
  IC50: 0.309 ± 0.021 µM
[1]; [11]
  IC50: 0.3 µM
[3]
  IC50: > 50 µM

## Cc1c(Cl)c(O)cc(O)c1C=O [Compound C0]
[1]; [8]
  IC50: > 20 µM

## C/C(=C\Cc1c(O)c(Cl)cc(C=O)c1O)CC/C=C(\C)C1CC(=O)C(C)(C)O1 (stereo not drawn) [Compound D10]
[1]; [6]
  IC50: 0.55 ± 0.13 µM

## C#CCOC/C(C)=C/CC/C(C)=C/Cc1c(O)c(Cl)c(C)c(C=O)c1O [Compound D16]
[1]; [7]
  IC50: 0.258 ± 0.072 µM
[1]; [11]
  IC50: 0.25 µM

## CC(C)=CCC/C(C)=C/Cc1c(O)c(Cl)c(C)c(C=O)c1O [Compound D7]
[1]; 1-aldehyde (D7) vs 1-acetyl (D6)
  increase of SQR IC50 compared to D6: 2 fold
